Reference: publication PMC10999543, “Identification of kinase modulators as host-directed therapeutics against intracellular methicillin-resistant Staphylococcus aureus” (Frontiers in Cellular and Infection Microbiology, 2024)

Assays:
[1] = tested on: HER2; parameters: method as in Elkins et al., 2016; details: PKIS1, Caliper assay, ref Elkins et al., 2016; cited from earlier work
[2] = tested on: AMPK; parameters: method as in Elkins et al., 2016; details: ref Elkins et al., 2016; cited from earlier work
[3] = tested on: other strains of S. aureus; experiment: CFU count in HeLa cells infected with other strains of S. aureus; format: cell-based, Staphylococcus aureus; details: Supplementary Figure S8A
Description: The cells were resuspended in cell culture medium without antibiotics, seeded with 10,000 cells/well into Costar flat-bottom 96-well plates (Corning, Amsterdam, the Netherlands), and were incubated overnight at 37°C/5% CO2. The next day, the bacteria were centrifuged at ≥1800 g for 15 min and resuspended in cold PBS + 5 mM ethylenediaminetetraacetic acid (EDTA). The number of CFUs present in the bacterial suspension was estimated from the optical density at 600 nm (OD600) by assuming 8x10^8 CFUs to be present in a bacterial suspension with OD600 = 1, based on prior titrations. The bacterial suspension was diluted in cell culture medium without antibiotics and added to the cells. Accuracy of the multiplicity of infection (MOI) was validated by plating serial dilutions of the MRSA inoculums on Difco TS agar plates (BD Biosciences). The calculated mean MOI throughout all experiments was 6.8 ± 4.6 (mean ± SD). Infected cells were centrifuged for 3 min at 150 g and incubated for 1 hour at 37°C/5% CO2. Next, the cells were incubated with fresh cell culture medium supplemented with 30 µg/ml gentamicin sulphate (Lonza BioWhittaker, Basel, Switzerland) for 15 min at 37°C/5% CO2 to kill residual extracellular bacteria. […]

[4] = tested on: LC3; experiment: Autophagosome formation by western blot (LC3-II/LC3-I); format: cell-based, human; details: MRSA-infected HeLa cells
Description: (§1) HeLa cells were seeded with 100,000 cells/well in 24-wells plates. In short, the cells were lysed in EBSB buffer (10% v/v glycerol, 3% SDS, 100 mM Tris-HCl, pH 6.8) supplemented with one tablet of cOmplete EDTA-free protease inhibitor cocktail (Sigma-Aldrich) and proteins were denaturated at 95°C for 5 min. Protein concentrations were determined using a Pierce™ BCA protein assay kit (Thermo Fisher Scientific). Samples were diluted in Laemmli sample buffer and loaded on a 15-well 4–20% Mini-PROTEAN® TGX™ Precast Protein Gel for electrophoresis (both from Bio-Rad, Hercules, CA, USA). […] Membranes were blocked for 1h in PBS supplemented with 5% w/v non-fat dry milk. Next, the membranes were cut and each protein was separately stained with primary antibodies against actin and LC3B in PBS supplemented with 5% w/v non-fat dry milk, or against AMPKα and AMPKα-pThr172 in PBS supplemented with 5% BSA (antibodies listed in Supplementary Table S1 ). Membranes were stained with secondary antibodies in PBS supplemented with 5% w/v non-fat dry milk. After each staining, membranes were washed four times in PBS + 0.1% Tween20. Prior to revelation, the membranes were incubated for 10 min in enhanced chemiluminescence (ECL) Prime Western Blotting System reagent (GE Healthcare, Hoevelaken, The Netherlands). […] Protein bands were quantified using Fiji software ([Schindelin et al., 2012]).

[5] = tested on: AMPK; experiment: Phosphorylation of AMPK at Thr172 by western blot; format: cell-based, human; details: MRSA-infected HeLa cells
Description: as §1

[6] = tested on: bioluminescent strain of MRSA; experiment: Real-time bioluminescence of MRSA-lux after infection of HeLa cells; format: cell-based, Staphylococcus aureus; details: 10 µM, infected HeLa cells
Description: The cells were resuspended in cell culture medium without antibiotics, seeded with 10,000 cells/well into Costar flat-bottom 96-well plates (Corning, Amsterdam, the Netherlands), and were incubated overnight at 37°C/5% CO2. The next day, the bacteria were centrifuged at ≥1800 g for 15 min and resuspended in cold PBS + 5 mM ethylenediaminetetraacetic acid (EDTA). The number of CFUs present in the bacterial suspension was estimated from the optical density at 600 nm (OD600) by assuming 8x10^8 CFUs to be present in a bacterial suspension with OD600 = 1, based on prior titrations. The bacterial suspension was diluted in cell culture medium without antibiotics and added to the cells. […] The calculated mean MOI throughout all experiments was 6.8 ± 4.6 (mean ± SD). […]
MRSA cultures at a concentration corresponding to an absorbance of 0.1 at 600 nm were incubated with the kinase inhibitors at 10 μM in flat-bottom 96-well plates. The absorbance was measured using an EnVision plate reader (PerkinElmer). The plates were incubated at 37°C overnight and the absorbance was measured again the next day. Real-time measurement of bioluminescence by the MRSA-lux strain was performed in a white flat-bottom 96-wells plate using a SpectraMax i3x plate reader and an integration time set at 9000 ms.

| Compound | % inhibition at 1 µM HER2 [1] | action on AMPK in a biochemical assay [2] | activity against other strains of S. aureus (CFU) [3] | accumulation of LC3-II ([4]; in the presence of bafilomycin A1 (100 nM)) | formation of LC3-II ([4]; without bafilomycin) | AMPK phosphorylation at Thr172 [5] | effect on bioluminescent MRSA growth over time [6] |
| --- | --- | --- | --- | --- | --- | --- | --- |
| O=S(=O)(CCNCc1ccc(-c2ccc3ncnc(Nc4ccc(OCc5cccc(F)c5)c(Cl)c4)c3c2)o1)c1ccccc1 [GW633459A] | 60% | – | – | – | – | – | – |
| COc1ccc2[nH]c3c4[nH]c5ccc(OC)cc5c4c4c(c3c2c1)C(=O)NC4=O [GW296115X] | – | AMPK inhibitor | active | strong accumulation of LC3-II | not affected | significantly increased AMPK phosphorylation at Thr172 | acts rapidly |
